Measured values from ChEMBL document CHEMBL5113374, “Research progress in biological activities of isochroman derivatives” (Eur J Med Chem, 2021).
Converted amounts (≈) assume the structure as drawn.

Columns and labels:
Lasiodiplodia theobromae = assay: Antifungal activity against Lasiodiplodia theobromae assessed as fungal growth inhibition at 100 ug/ml incubated for 4 days by disk method; type: functional; settings: 96 h, time 4 day
Oocyte [1] = assay: Antagonist activity at human dopamine D4 receptor polymorphic variant 2 expressed in Xenopus laevis oocytes at 1 uM incubated for 2 mins; type: cell-based; settings: filed as antagonist
Oocyte [2] = assay: Antagonist activity at human dopamine D4 receptor polymorphic variant 7 expressed in Xenopus laevis oocytes at 1 uM incubated for 2 mins; type: cell-based
Oocyte [3] = assay: Antagonist activity at human dopamine D4 receptor polymorphic variant 4 expressed in Xenopus laevis oocytes at 1 uM incubated for 2 mins; type: cell-based; settings: filed as antagonist
NCI-H460 = assay: Antiproliferative activity against human NCI-H460 assessed as cell growth inhibition at 100 uM by SRB assay based spectrophotometric analysis; type: functional
[4] = target: Sigma intracellular receptor 2 (Rattus norvegicus, UniProt Q5U3Y7); assay: Displacement of [3H]DTG from sigma 2 receptor in Sprague-Dawley rat liver membranes measured after 120 mins by liquid scintillation counting method; type: cell membranes, Membrane
Acetylcholinesterase [5] = target: T1, Acetylcholinesterase (Homo sapiens, UniProt P22303); assay: Inhibition of AChE in human erythrocytes using acetylthiocholine iodide as substrate at 50 uM incubated for 20 mins by DTNB reagent based Ellman's method; type: cell-based; settings: Erythrocyte
L5178Y = assay: Cytotoxicity against […] assessed as inhibition of cell viability at 10 ug/ml; type: functional; settings: Mus musculus
Rattus norvegicus [6] = species on record: Rattus norvegicus; assay: Antiallergic activity in Wistar rat abdominal cavity assessed as inhibition of C48/80-induced histamine release at 0.0005 M incubated for 30 mins by OPT-fluorophore based spectrofluorometric analysis; type: functional; settings: 0.5 h
Mus musculus [7] = assay: Analgesic activity in po dosed phenylquinone induced mouse assessed as assessed as reduction in phenylquinone induced writhing; type: functional
KB = assay: Antiproliferative activity against human KB cells assessed as cell growth inhibition incubated for 48 hrs by coulter counter method; type: functional; settings: read-out: ID50 (the source's name)
[8] = target: Glutamate NMDA receptor (Rattus norvegicus) (UniProt P35439+Q00959+Q00960+Q00961+Q62645+Q8VHN2+Q9R1M7); assay: Displacement of 3H-(+)-MK 801 from NMDA receptor in rat brain incubated for 80 mins by liquid scintillation counting method; type: tissue-based; settings: filed as antagonist
Mus musculus [9] = species on record: Mus musculus; assay: Analgesic activity in acetic acid induced mouse assessed as assessed as reduction in acetic acid induced writhing […]; type: functional, organism-based
Rattus norvegicus [10] = assay: Antisecretory activity in Sprague-Dawley rat assessed as inhibition of gastric acid accumulation at 20 mg/kg,ID; type: functional
Rattus norvegicus [11] = assay: Anti-ulcerative activity in aspirin induced Sprague-Dawley rat ulcer model assessed as inhibition of ulcer index at 20 mg/kg,po; type: functional
[12] = target: 5-hydroxytryptamine receptor 1B (Homo sapiens, UniProt P28222); assay: Displacement of [3H]serotonin from recombinant human 5-HT1B receptor expressed in HEK293 cells incubated for 1 hr by competitive radioligand binding assay based; type: cell-based
D(4) dopamine receptor = D(4) dopamine receptor (Homo sapiens, UniProt P21917); assay: Displacement of spiperone from human dopamine D4 receptor expressed in CHO cell membrane incubated for 1 hr by competitive radioligand binding assay based; type: cell membranes
[13] = Antioxidant activity assessed as hydroxy radical scavenging activity by HPLC analysis; type: functional
[14] = Antioxidant activity assessed as DPPH radical scavenging activity by HPLC analysis; type: functional
[15] = Antioxidant activity assessed as Ferric ion reducing activity by FRAP assay based HPLC analysis; type: functional
Homo sapiens = species on record: Homo sapiens; assay: Selectivity index, ratio of IC50 for […] (unknown origin)
Acetylcholinesterase [16] = target: T1, Acetylcholinesterase; assay: Inhibition of AChE (unknown origin) using acetylthiocholine iodide as substrate incubated for 10 mins by DTNB reagent based Ellman's method
[17] = target: Beta-1 adrenergic receptor (Rattus norvegicus) (UniProt P18090); assay: Antagonist activity against beta1 adrenoceptor in Sprague-Dawley rat incubated for 5 mins; settings: filed as antagonist
Staphylococcus aureus = assay: Antibacterial activity against Staphylococcus aureus ATTC-25923 assessed as bacterial growth inhibition incubated for 24 hrs by disk diffusion assay; type: functional
Escherichia coli = assay: Antibacterial activity against Escherichia coli ATTC-25922 assessed as bacterial growth inhibition incubated for 24 hrs by disk diffusion assay; type: functional
Pseudomonas aeruginosa = assay: Antibacterial activity against Pseudomonas aeruginosa ATTC-27853 assessed as bacterial growth inhibition incubated for 24 hrs by disk diffusion assay; type: functional
Klebsiella pneumoniae = assay: Antibacterial activity against Klebsiella pneumoniae assessed as bacterial growth inhibition incubated for 24 hrs by disk diffusion assay; type: functional
HL-60 = assay: Cytotoxicity against human HL-60 cells; type: functional, cell-based
DNA gyrase [18] = target: T2, DNA gyrase (Escherichia coli, UniProt P0AES4+P0AES6); assay: Inhibition of Escherichia coli DNA gyrase assessed as inhibition of relaxation of supercoiled plasmid pBR322 DNA incubated for 2 hrs by ethidium bromide/bromophenol blue staining based agarose gel electrophoresis analysis; type: protein-complex assay
DNA gyrase [19] = target: T2, DNA gyrase; assay: Inhibition of Escherichia coli DNA gyrase supercoiling activity using pBR322 DNA as substrate incubated for 2 hrs by ethidium bromide/bromophenol blue staining based agarose gel electrophoresis analysis; type: protein-complex assay
DNA topoisomerase 2 = DNA topoisomerase 2 (Drosophila melanogaster, UniProt P15348); assay: Inhibition of Drosophila topoisomerase II assessed as relaxation of supercoiled plasmid pBR322 DNA incubated for 30 mins by ethidium bromide staining based agarose gel electrophoresis
Talaromyces marneffei = assay: Antifungal activity against Penicillium marneffei assessed as fungal growth inhibition incubated for 1 hrs by disk diffusion assay; type: functional
[20] = system: Trichophyton mentagrophytes; assay: Antifungal activity against Trichophyton mentagrophytes assessed as fungal growth inhibition incubated for 1 hrs by disk diffusion assay; type: functional
Aspergillus flavus = assay: Antifungal activity against Aspergillus flavus assessed as fungal growth inhibition incubated for 1 hrs by disk diffusion assay; type: functional
Aspergillus fumigatus = assay: Antifungal activity against Aspergillus fumigatus assessed as fungal growth inhibition incubated for 1 hrs by disk diffusion assay; type: functional
D(1A) dopamine receptor = D(1A) dopamine receptor (Sus scrofa, UniProt P50130); assay: Displacement of [3H]SCH-23390 from porcine striatum dopamine D1 receptor incubated for 30 mins by radioligand competition binding assay based scintillation counter analysis; type: tissue-based
[21] = Displacement of [3H]SCH-23390 from porcine striatum dopamine D2 receptor incubated for 30 mins by radioligand competition binding assay based scintillation counter analysis; type: tissue-based, Sus scrofa
[22] = target: Sigma non-opioid intracellular receptor 1 (Cavia porcellus, UniProt Q60492); assay: Displacement of [3H](+)-pentazocine from sigma 1 receptor in guinea pig brain membranes measured after 150 mins by liquid scintillation counting method; type: cell membranes, Membrane
[23] = Selectivity index, ratio of Ki for displacement of [3H]-(+)-pentazocine from sigma1 receptor in guinea pig brain membrane to Ki for displacement of [3H]DTG from sigma 2 receptor in Sprague-Dawley rat liver membranes; type: cell membranes

T1 sequence (P22303 whole entry): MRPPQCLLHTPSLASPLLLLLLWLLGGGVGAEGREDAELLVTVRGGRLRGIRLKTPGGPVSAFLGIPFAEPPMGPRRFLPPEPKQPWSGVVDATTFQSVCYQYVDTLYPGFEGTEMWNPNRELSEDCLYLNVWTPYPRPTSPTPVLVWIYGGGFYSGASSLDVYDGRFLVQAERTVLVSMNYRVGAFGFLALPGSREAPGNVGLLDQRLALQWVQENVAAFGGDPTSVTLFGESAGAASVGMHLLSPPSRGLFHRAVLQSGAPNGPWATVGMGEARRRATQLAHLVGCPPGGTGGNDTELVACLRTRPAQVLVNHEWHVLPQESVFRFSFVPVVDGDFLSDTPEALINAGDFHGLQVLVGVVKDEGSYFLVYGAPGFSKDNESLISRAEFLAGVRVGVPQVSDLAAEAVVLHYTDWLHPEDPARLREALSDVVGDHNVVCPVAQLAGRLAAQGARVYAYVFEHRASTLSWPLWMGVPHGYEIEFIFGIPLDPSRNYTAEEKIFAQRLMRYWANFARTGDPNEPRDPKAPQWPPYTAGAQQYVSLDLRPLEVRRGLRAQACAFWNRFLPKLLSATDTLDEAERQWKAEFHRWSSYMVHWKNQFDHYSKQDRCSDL
D(4) dopamine receptor, sequence (P21917 whole entry): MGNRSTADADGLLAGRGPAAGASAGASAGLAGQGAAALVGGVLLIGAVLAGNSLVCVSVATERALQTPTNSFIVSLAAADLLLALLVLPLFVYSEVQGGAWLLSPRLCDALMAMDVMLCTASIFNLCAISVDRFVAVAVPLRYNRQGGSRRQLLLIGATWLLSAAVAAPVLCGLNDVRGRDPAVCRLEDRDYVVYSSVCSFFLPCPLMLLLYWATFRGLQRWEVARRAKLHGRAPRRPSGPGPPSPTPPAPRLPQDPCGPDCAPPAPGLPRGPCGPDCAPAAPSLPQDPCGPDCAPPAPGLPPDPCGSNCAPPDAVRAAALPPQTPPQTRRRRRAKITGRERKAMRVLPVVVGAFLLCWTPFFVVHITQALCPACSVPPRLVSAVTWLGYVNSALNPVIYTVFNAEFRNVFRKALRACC
DNA topoisomerase 2, sequence (P15348 whole entry, the tested form may be a part): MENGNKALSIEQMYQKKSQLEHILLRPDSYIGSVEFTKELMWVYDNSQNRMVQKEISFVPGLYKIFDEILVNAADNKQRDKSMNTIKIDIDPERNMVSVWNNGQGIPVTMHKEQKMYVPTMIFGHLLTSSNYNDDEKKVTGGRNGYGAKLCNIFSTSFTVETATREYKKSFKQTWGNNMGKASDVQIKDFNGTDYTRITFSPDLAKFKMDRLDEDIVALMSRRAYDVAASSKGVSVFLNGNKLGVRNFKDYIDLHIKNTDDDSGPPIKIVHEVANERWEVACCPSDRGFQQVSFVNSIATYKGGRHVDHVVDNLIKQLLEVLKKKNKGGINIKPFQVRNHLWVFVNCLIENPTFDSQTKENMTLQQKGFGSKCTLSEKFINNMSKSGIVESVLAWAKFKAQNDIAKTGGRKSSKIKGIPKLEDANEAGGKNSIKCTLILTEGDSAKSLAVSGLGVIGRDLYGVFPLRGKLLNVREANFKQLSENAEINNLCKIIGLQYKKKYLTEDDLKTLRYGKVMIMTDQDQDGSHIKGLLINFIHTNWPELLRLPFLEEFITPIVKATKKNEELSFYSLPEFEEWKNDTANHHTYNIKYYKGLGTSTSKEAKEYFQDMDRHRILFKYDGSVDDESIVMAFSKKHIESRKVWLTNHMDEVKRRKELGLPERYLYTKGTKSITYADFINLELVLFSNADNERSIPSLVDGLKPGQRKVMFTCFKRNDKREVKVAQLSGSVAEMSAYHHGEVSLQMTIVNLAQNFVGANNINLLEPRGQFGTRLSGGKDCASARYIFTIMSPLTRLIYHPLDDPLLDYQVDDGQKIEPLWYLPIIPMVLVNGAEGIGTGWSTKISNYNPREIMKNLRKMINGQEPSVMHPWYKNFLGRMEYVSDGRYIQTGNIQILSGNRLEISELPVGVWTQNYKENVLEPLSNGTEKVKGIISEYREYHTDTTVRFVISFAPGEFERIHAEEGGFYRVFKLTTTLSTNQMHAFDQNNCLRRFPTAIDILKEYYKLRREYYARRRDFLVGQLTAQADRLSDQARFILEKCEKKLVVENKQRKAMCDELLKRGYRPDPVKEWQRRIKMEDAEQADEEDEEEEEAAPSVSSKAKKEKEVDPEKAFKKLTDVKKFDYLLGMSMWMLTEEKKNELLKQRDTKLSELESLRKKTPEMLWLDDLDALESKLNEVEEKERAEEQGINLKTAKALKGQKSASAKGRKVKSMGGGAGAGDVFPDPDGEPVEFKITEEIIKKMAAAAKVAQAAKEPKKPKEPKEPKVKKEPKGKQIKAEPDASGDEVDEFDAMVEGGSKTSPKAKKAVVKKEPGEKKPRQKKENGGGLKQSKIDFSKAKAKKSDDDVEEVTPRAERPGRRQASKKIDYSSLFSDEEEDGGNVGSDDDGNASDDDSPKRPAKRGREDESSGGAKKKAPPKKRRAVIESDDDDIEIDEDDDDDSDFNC
Sigma non-opioid intracellular receptor 1, sequence (Q60492 whole entry): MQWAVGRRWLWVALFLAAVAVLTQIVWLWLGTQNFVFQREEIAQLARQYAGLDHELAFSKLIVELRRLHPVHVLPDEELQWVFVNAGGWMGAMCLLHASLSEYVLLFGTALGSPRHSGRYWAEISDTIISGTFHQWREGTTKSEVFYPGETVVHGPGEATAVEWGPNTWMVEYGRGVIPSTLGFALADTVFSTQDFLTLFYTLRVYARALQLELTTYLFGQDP
5-hydroxytryptamine receptor 1B, sequence (P28222 whole entry): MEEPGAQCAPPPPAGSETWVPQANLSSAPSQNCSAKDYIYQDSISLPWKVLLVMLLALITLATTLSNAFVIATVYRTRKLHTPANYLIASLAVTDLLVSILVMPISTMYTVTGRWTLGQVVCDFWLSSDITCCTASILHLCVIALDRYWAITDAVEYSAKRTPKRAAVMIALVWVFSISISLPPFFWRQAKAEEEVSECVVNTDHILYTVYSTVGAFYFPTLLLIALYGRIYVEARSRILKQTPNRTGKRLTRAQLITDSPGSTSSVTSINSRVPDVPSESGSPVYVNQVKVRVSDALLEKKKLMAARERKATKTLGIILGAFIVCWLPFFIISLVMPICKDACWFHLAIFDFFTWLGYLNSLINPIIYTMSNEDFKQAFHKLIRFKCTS
D(1A) dopamine receptor, sequence (P50130 whole entry): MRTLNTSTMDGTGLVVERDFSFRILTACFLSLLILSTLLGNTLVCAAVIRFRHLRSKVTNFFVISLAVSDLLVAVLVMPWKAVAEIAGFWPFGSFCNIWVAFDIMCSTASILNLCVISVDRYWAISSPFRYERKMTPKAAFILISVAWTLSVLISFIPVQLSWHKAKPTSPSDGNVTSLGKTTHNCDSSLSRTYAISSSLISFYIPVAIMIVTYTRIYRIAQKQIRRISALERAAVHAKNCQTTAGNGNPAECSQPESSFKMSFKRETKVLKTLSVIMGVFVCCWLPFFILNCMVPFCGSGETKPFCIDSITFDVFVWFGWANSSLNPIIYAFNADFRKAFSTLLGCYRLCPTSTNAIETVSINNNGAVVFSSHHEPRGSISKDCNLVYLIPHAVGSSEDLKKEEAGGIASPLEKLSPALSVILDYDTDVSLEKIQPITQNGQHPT
Beta-1 adrenergic receptor (Rattus norvegicus), sequence (P18090 whole entry, looked up, the tested form may be a part): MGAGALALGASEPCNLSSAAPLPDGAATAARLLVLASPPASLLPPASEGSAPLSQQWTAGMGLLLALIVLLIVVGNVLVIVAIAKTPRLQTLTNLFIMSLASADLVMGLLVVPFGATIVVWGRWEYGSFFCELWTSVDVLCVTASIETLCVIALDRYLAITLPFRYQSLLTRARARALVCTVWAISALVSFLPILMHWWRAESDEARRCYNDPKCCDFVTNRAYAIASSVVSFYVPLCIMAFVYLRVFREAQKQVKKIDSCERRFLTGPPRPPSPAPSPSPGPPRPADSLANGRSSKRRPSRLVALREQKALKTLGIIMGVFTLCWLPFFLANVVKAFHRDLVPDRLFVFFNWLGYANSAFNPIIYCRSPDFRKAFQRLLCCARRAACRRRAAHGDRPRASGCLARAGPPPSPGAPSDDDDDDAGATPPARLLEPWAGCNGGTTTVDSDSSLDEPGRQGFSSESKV
Sigma intracellular receptor 2, sequence (Q5U3Y7 whole entry): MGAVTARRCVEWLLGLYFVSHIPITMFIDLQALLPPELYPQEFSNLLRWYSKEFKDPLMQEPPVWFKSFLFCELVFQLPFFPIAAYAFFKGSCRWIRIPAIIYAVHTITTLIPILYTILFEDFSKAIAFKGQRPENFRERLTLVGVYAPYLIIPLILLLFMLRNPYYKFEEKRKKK

## COC1=CC(=O)C(C)=C2C[C@H](C)OC=C12
Lasiodiplodia theobromae
  inhibition at 100 µg/mL: 69%

## COc1ccc(N2CCN(CC[C@@H]3O[C@@H](C)Cc4cc(OC)c(OC)cc43)CC2)cc1
Oocyte [1]
  inhibition: 66%
Oocyte [2]
  inhibition: 33%
Oocyte [3]
  inhibition: 46%

## CC12Cc3cc4c(cc3C(c3ccc(N)cc3)(OCO1)O2)OCO4 (stereo unspecified)
NCI-H460
  inhibition at 100 µM: 86%

## N#CC1Cc2ccccc2C2(CCN(Cc3ccccc3)CC2)O1 (stereo unspecified)
[4]
  Ki: 1.59 µM

## COC(=O)Cc1cc2c(cc1C(=O)c1ccc(N)cc1)OCO2
NCI-H460
  inhibition at 100 µM: 4%

## COC1(C)Cc2c(C=O)c(O)c(Cc3c(O)c(C=O)c4c(c3O)COC(C)=C4)c(O)c2CO1 (stereo unspecified)
Acetylcholinesterase [5]
  inhibition: 55%

## COc1cc(O)cc2c1CO[C@@H](C)C2
L5178Y
  inhibition at 10 µg/mL: 16.1%

## c1ccc(CCN2CCC3(CC2)COCc2ccccc23)cc1
Rattus norvegicus [6]
  inhibition in vivo at 500 µM: 96%
Mus musculus [7]
  ED50: 54 mg/kg

## Clc1ccc2oc(SCC3OCCc4ccccc43)nc2c1 (stereo unspecified)
KB
  IC50: 6.1 µg/mL (≈ 18.4 µM)

## CC1=Cc2c(C=O)c(O)c(C)c(O)c2CO1
Acetylcholinesterase [5]
  inhibition: -2%

## COc1cc2c(cc1OC)C1CNCC(C2)O1 (stereo unspecified)
[8]
  Activity: 93%

## COc1cc2c(cc1OC)C1CN(C)CC(C2)O1 (stereo unspecified)
[8]
  Activity: 95%
Mus musculus [9]
  EC50: 77 mg/kg

## CN1CCC2(CC1)COCc1ccccc12
Mus musculus [7]
  ED50: 12 mg/kg

## CC(CC1CCCc2ccccc21)NCC(C)c1ccccc1 (stereo unspecified)
Rattus norvegicus [10]
  inhibition in vivo at 20 mg/kg: 71.3%
Rattus norvegicus [11]
  inhibition in vivo at 20 mg/kg: 3.2%

## COc1cc(O)c(C)c2c1CO[C@@H](C)C2
L5178Y
  inhibition at 10 µg/mL: 3.4%

## COc1cc(O)cc2c1C(=O)O[C@@H](C)C2
L5178Y
  inhibition at 10 µg/mL: 13.7%

## CNC(=O)c1ccc2c(c1)CCO[C@H]2CCN1CCN(c2ccc(OC)cc2)CC1
[12]
  Ki: 5.78 µM
D(4) dopamine receptor
  Ki: 3.7 µM

## COc1cc(O)c(C)c2c1C(=O)O[C@@H](C)C2
L5178Y
  inhibition at 10 µg/mL: 59.5%

## Oc1ccc2c(c1)OCC21Cc2cc(O)c(O)cc2C(O)O1 (stereo unspecified)
[13]
  IC50: 33.3 µM
[14]
  IC50: 33.3 µM
[15]
  IC50: 78.2 µM

## CN/C(=N\CCSCc1nc[nH]c1C)NC#N [CIMETIDINE]
Rattus norvegicus [10]
  inhibition in vivo at 20 mg/kg: 51.6%

## COc1cc2c(cc1OC)C(=O)/C(=C/c1cc[n+](Cc3ccc(F)cc3)cc1)OC2
Homo sapiens
  Ratio IC50: > 5000
Acetylcholinesterase [16]
  IC50: 0.00015 µM

## O=C1OCC2(CCN(Cc3ccccc3)CC2)c2ccccc21
Rattus norvegicus [6]
  inhibition in vivo at 500 µM: 31%
Mus musculus [7]
  ED50: 100 mg/kg

## COc1cc(O)c(C)c2c1[C@@H](OC)O[C@@H](C)C2
Lasiodiplodia theobromae
  inhibition at 100 µg/mL: 76%

## COC1(C)Cc2c(C=O)c(O)c(C)c(O)c2CO1 (stereo unspecified)
Acetylcholinesterase [5]
  inhibition: -1%

## CCCNCC(O)CC/N=C1\COCc2c1ccc(OC)c2OC (stereo unspecified)
[17]
  inhibition: 62.9%

## CC1=Cc2c(C=O)c(O)c(Cc3c(O)c(C=O)c4c(c3O)COC(C)=C4)c(O)c2CO1
Acetylcholinesterase [5]
  inhibition: 46%

## COc1cc(O)c(C)c2c1CO[C@@H](C)[C@@H]2O
L5178Y
  inhibition at 10 µg/mL: 26.2%

## C[C@H]1Cc2cc3c(cc2[C@H](c2ccc(N)cc2)O1)OCO3
NCI-H460
  inhibition at 100 µM: 67%

## CC(CC1OCCc2ccccc21)NCCc1ccccc1 (stereo unspecified)
Rattus norvegicus [10]
  inhibition in vivo at 20 mg/kg: 71.3%

## COC(=O)[C@]1(C)Cc2cc(OC)c(OC)cc2C2(CCN(C)CC2)O1.Cl
Mus musculus [9]
  EC50: 44 mg/kg

## COc1cc(O)c(C)c2c1[C@H](O)O[C@@H](C)C2
L5178Y
  inhibition at 10 µg/mL: 40.4%

## COc1cc2c(c(OC)c1OC)C(C)(c1n[nH]c(=S)n1-c1ccc(C)cc1)OCC2 (stereo unspecified)
Staphylococcus aureus
  MIC: 6.25 µg/mL (≈ 14.6 µM)
Escherichia coli
  MIC: 6.25 µg/mL (≈ 14.6 µM)
Pseudomonas aeruginosa
  MIC: 6.25 µg/mL (≈ 14.6 µM)
Klebsiella pneumoniae
  MIC: 6.25 µg/mL (≈ 14.6 µM)

## O=C1OCC2(CCN(CCc3ccccc3)CC2)c2ccccc21
Rattus norvegicus [6]
  inhibition in vivo at 500 µM: 94%
Mus musculus [7]
  ED50: 60 mg/kg

## CC(C)NC(C)CC1OCCc2ccccc21 (stereo unspecified)
Rattus norvegicus [10]
  inhibition in vivo at 20 mg/kg: 61%

## Cc1c(O)cc(O)c2c1[C@H](C)[C@@H](C)O[C@@H]2c1ccc(O)cc1
HL-60
  IC50: 22.7 µg/mL (≈ 75.6 µM)

## CCCCCCC[C@H]1Cc2cc(O)c(C(=O)O)c(O)c2[C@@H](O)O1
DNA gyrase [18]
  IC50: 27.7 µM
DNA gyrase [19]
  IC50: 18.5 µM
DNA topoisomerase 2
  IC50: 3.08 µM

## CCOC1OC(C)Cc2c(C)c(O)cc(OC)c21 (stereo unspecified)
Lasiodiplodia theobromae
  inhibition at 100 µg/mL: 74%

## COc1cccc(Nc2nnc(C3(C)OCCc4cc(OC)c(OC)c(OC)c43)s2)c1 (stereo unspecified)
Talaromyces marneffei
  MIC: 6.25 µg/mL (≈ 14.1 µM)
Staphylococcus aureus
  MIC: 6.25 µg/mL (≈ 14.1 µM)
Escherichia coli
  MIC: 6.25 µg/mL (≈ 14.1 µM)
Pseudomonas aeruginosa
  MIC: 6.25 µg/mL (≈ 14.1 µM)
[20]
  MIC: 6.25 µg/mL (≈ 14.1 µM)
Klebsiella pneumoniae
  MIC: 6.25 µg/mL (≈ 14.1 µM)
Aspergillus flavus
  MIC: 6.25 µg/mL (≈ 14.1 µM)
Aspergillus fumigatus
  MIC: 6.25 µg/mL (≈ 14.1 µM)

## NC[C@@H]1O[C@H](C23CC4CC(CC(C4)C2)C3)Cc2c1ccc(O)c2O
D(1A) dopamine receptor
  Ki: 0.0039 µM
[21]
  Ki: 1.86 µM

## COC1Cc2ccccc2C2(CCN(CCc3ccccc3)CC2)O1 (stereo unspecified)
[22]
  Ki: 0.00207 µM
[23]
  Ratio Ki: 148

## COC1(C)Cc2c(C=O)c(O)c(Cc3c(O)c(C=O)c4c(c3O)COC(C)(OC)C4)c(O)c2CO1 (stereo unspecified)
Acetylcholinesterase [5]
  inhibition: 53%
